Entries after “also recorded” stand apart in the source; their conditions may differ. No end group written: not given here.
Legend:
HCT116 cells = experiment: Glutamine competition experiment (FITC-P-LPK uptake); type: cell-based, human; details: 0–32 mM glutamine, 37 °C, 2 h
Description: Then these cells were washed with ice-cold PBS three times gently, suspended in PBS and transferred to a 96-well costar plate. The fluorescence intensity was measured in a multi-well plate reader (BioTek synergy4).

in vivo [1] = experiment: in vivo; parameters: species or system human xenograft in BALB/c nude mice; details: female, BALB/c nude, mouse, iv, 3.7 MBq, total radioactivity, T/NT ratio
Description: (§1) To obtain ^68Ga, 0.1 M HCl was used to elute a ^68Ge-^68Ga generator. The radioactivity of eluate was monitored. The radioactive elution peak was collected for ^68Ga radiolabeling experiment. An aliquot of 150 μg of compound P-LPK or P-CON was put in a glass vial and dissolved with 0.2 M sodium acetate/acetic acid buffer, pH 3.8. Then ^68GaCl3 tracer was added, and the pH was adjusted to fall in a range of 3.5~4 with 0.1 M NaOH. The solution was stored at room temperature for 0.5 h. The radiochemical purities of ^68Ga-P-LPK and ^68Ga-P-CON were measured with thin-layer chromatography (TLC), using silica gel-impregnated glass fiber stripe (iTLC SG) and 0.25 M sodium citrate/citric acid buffer as mobile phase. ^68GaCl3 was used as a control.
(§2) Each U87 and HCT116 tumor-bearing mouse was injected in a tail vein with 3.7 MBq (100 μCi, 0.1 nmol in 100 μl) of ^68Ga-P-LPK or ^68Ga-P-CON under isoflurane anesthesia (n = 4 per group). For static PET, 5-min scans were acquired at 30 min, 60 min, and 120 min after injection. The maximum radioactivity concentrations within a tumor or an organ were obtained from mean pixel values within the multiple regions of interest (ROI) volume.
For the blocking experiment, unlabeled P-LPK was first injected into mice (n = 3 per group), and 3.7 MBq ^68Ga-P-LPK was then injected. Static PET images were acquired at 30 min, 60 min and 120 min post-injection.

U87 tumors = experiment: in vivo; parameters: species or system human xenograft in BALB/c nude mice; details: female, BALB/c nude, mouse, iv, 3.7 MBq, 2 h
Description: as §1, §2

in vivo [2] = experiment: in vivo; parameters: species or system human xenograft in BALB/c nude mice; details: female, BALB/c nude, mouse, iv, 3.7 MBq, total radioactivity, T/NT ratio; remark: listed apart in the source
Description: as §1, §2

[3] = test system: Plasminogen activator inhibitor 1 precursor (PAI1); details: MDA-MB-231, bioinformatics analysis; cited from earlier work
Source text: (§3) The specific binding mechanisms of a peptide to a cell is presumably by its binding to a given receptor expressed at the cell membrane.

CRC cells = details: conjugated to CPT
human CRC cell lines [4] = details: earlier phage display study; cited from earlier work
Source text: The phage display technique is a powerful tool to identify novel targeting peptides in researches and clinics[10]–[12]. By screening whole cells, it is able to identify short peptides that interact with cell surface molecules.

human CRC cell lines [5] = experiment: Peptide binding to a panel of human CRC cell lines; type: cell-based; details: confocal imaging, in contrast to NCM460; FITC-labeled
Description: NCM460, Colo320HSR, HCT116, LoVo, HT29 and SW480 cells were respectively incubated with FITC-labeled P-LPK (Random peptide P-CON) peptides for 2 h at 37 °C and washed with PBS for three times. The cells were fixed with 4% paraformaldehyde for 30 min at room temperature, and then 4,6-diamidino-2-phenylindole (DAPI) was used for nucleic acid stain. A laser scanning confocal microscope was used to visualize the cells. The fluorescence intensity was analyzed using the Image-Pro Plus 6.0 software. For cell localization experiment, 20 μg/ml rhodamine-labeled peptides were incubated with NCM460 and HCT116 for 2 h, and then washed with PBS for three times. After that, the cell membrane was stained with a blue cell membrane probe (Thermo Fisher Scientific, Cat. No. W11263). The binding of Rhodamine-P-LPK to cells and their localization in cells was observed under a confocal microscope.

SLC1A5 in HT29 cells = experiment: FITC-P-LPK binding after SLC1A5 knockdown; type: cell-based, human; details: si-SLC1A5, 48 h
Description: (§4) Fig. 6 P-LPK bound to SLC1A5 and entered CRC cells through endocytosis. a, b Western blotting analysis of SLC1A5 in NCM460, HCT116, LoVo, SW480, HT29 and Colo320HSR cells. After knocking down SLC1A5 in HCT116 and HT29, the binding intensity of FITC-P-LPK to cells was observed by confocal microscopy. Bar, 10 μm. c, d Effects of different endocytosis inhibitors on the internalization of FITC-P-LPK. HCT116 cells were pre-treated with 10 µM chlorpromazine, 50 μM methyl-β-cyclodextrin, 20 µM Amiloride hydrochloride for 30 min at 37 °C. Subsequently, the cells were incubated with FITC-P-LPK for 2 h. Then the fluorescence intensity was observed by confocal microscopy and detected using a multi-well plate reader (n = 5, means ± SD, NC vs CPZ, p = 0.0001; NC vs MβCD, p = 0.9069; NC vs EIPA, p = 0.9812) (****p < 0.0001). Bar, 10 μm. e The competition experiment with SLC1A5 substrates glutamine. FITC-P-LPK was incubated with increasing concentrations (0–32 mM) of glutamine in HCT116 cells at 37 °C for 2 h. The fluorescence intensity was measured in a multi-well plate reader (n = 5, means ± SD). […]
(§5) Primary antibodies against SLC1A5 (Abcam,  Cat No. ab237704,1:1000) and secondary antibodies labeled with HRP (YEASEN, 33701ES60, China,1:5000) was applied. Signals were detected using ECL Kit (Pierce Biotech, Rockford, IL). β-Actin (Sigma,USA, A5441) was performed as an internal control.

SLC1A5 in HCT116 cells = experiment: FITC-P-LPK binding after SLC1A5 knockdown; type: cell-based, human; details: si-SLC1A5, 48 h
Description: as §4, §5

α-2-macroglobulin = details: androgen-independent prostate cancer cells; cited from earlier work
Source text: as §3

[6] = test system: Metalloproteinase Inhibitor 1 (TIMP-1); details: MDA-MB-231, bioinformatics analysis; cited from earlier work
Source text: as §3

[7] = test system: 78 kDa glucose-regulated protein; details: androgen-independent prostate cancer cells; cited from earlier work
Source text: as §3

NC(=O)CC[C@H](N)C(=O)O [glutamine]
Effect on uptake of FITC-P-LPK (HCT116 cells): does not affect the uptake of P-LPK

DLPSRTSALASG [68Ga-P-CON, metal not drawn]
tissue to tissue ratio at 0.5 h (in vivo [1]): 1.58
tissue to tissue ratio at 1 h (in vivo [1]): 1.49
tissue to tissue ratio at 2 h (in vivo [1]): 1.37
T/NT ratio (U87 tumors): 1.28
tissue to tissue ratio at 0.5 h (in vivo [2]): 1.75
tissue to tissue ratio at 1 h (in vivo [2]): 1.56
tissue to tissue ratio at 2 h (in vivo [2]): 1.33

DTFNSFGRVRIE [peptide targeting MDA-MB-231]
Targeting [3]: specifically targeted

DWSSWVYRDPQT [CBP-DWS]
Improvement of CPT killing when used as targeting vector (CRC cells): did not improve the targeted killing ability
Binding to CRC cells (human CRC cell lines [4]): selectively bound to CRC cells

FITC-P-LPK (LPKTVSSDMSLN; also: FITC label, position not given here)
FITC-peptide binding to CRC cells (human CRC cell lines [5]): stronger green fluorescence in CRC cells than normal NCM460 cells; also recorded: abundant binding capacity to human CRC cell lines
Fluorescence after SLC1A5 knockdown (SLC1A5 in HT29 cells): reduction of the fluorescence
Fluorescence after SLC1A5 knockdown (SLC1A5 in HCT116 cells): reduction of the fluorescence

PKRGFQD [peptide targeting androgen-independent prostate cancer cells]
Binding (α-2-macroglobulin): bind specifically to α-2-macroglobulin

PRWAVSP [peptide targeting MDA-MB-231]
Targeting [6]: specifically targeted Metalloproteinase Inhibitor 1 (TIMP-1)

SNTRVAP [peptide targeting androgen-independent prostate cancer cells]
Binding [7]: bind specifically
